# ChEMBL document CHEMBL4028825, “Pharmacological evaluation of a novel series of urea, thiourea and guanidine derivatives as P2X7 receptor antagonists” (Bioorg Med Chem Lett, 2017)
# Target: T1, P2X purinoceptor 7 (Homo sapiens, UniProt Q99572)
# T1 sequence (Q99572 whole entry): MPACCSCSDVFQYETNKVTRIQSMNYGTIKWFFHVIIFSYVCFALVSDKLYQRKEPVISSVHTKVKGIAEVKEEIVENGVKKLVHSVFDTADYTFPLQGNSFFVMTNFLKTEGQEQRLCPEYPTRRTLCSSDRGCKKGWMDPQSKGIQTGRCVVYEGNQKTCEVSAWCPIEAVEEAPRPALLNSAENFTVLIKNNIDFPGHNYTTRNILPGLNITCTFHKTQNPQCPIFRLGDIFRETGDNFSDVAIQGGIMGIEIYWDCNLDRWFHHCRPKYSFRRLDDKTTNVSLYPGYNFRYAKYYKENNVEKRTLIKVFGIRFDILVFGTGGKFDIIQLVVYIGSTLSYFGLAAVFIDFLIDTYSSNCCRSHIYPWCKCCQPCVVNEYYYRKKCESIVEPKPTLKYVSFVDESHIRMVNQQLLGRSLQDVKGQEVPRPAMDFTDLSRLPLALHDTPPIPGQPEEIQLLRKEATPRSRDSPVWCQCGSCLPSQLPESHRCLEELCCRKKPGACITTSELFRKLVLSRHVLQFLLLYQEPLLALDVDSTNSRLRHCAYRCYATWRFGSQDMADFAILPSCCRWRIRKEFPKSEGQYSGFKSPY
# Experiment: Antagonist activity at P2X7 receptor in human THP1 cells assessed as inhibition of BzATP-induced YO-PRO-1 Iodide uptake measured every 30 secs for 1 hr by fluorescence assay
# Assay type: cell-based
# Conditions: not given
row,IC50,Compound
1,Nd(Insoluble),N=C(NCC12CC3CC(CC(C3)C1)C2)Nc1ccccc1

# Same assay, conditions: read-out: IC50
row,Compound,IC50 [µM]
1,O=C(NCc1ccncc1)NCC12CC3CC(CC(C3)C1)C2,6.75
2,N=C(NCc1ccccc1)NCC12CC3CC(CC(C3)C1)C2,> 10
3,O=C(NCCc1ccccc1)NCC12CC3CC(CC(C3)C1)C2,6.41

# Second part, the compound after the results:
row,IC50 [µM],Compound
1,4.96,O=C(NCC12CC3CC(CC(C3)C1)C2)Nc1ccccc1
2,3.38,O=C(NCc1cccnc1)NCC12CC3CC(CC(C3)C1)C2
3,4.24,S=C(NCc1ccccc1)NCC12CC3CC(CC(C3)C1)C2
4,5.95,O=C(NCc1ccccn1)NCC12CC3CC(CC(C3)C1)C2
5,2.42,S=C(NCC12CC3CC(CC(C3)C1)C2)Nc1ccccc1
6,4.54,O=C(NCc1ccccc1)NCC12CC3CC(CC(C3)C1)C2
